The values that follow come from ChEMBL document CHEMBL1149863, “Phenolic glycosides from berries of Pimenta dioica” (J Nat Prod, 2008).

The nature of the assay: DPPH radical scavenging activity after 180 mins. The class given is functional. A general note: The DPPH test is a chemical assay of radical scavenging.
The IC50 is the concentration that inhibits the measured activity by half. Read a low IC50 as greater potency in that assay. Consider `CC1=CC[C@@H](C(C)(C)O[C@@H]2O[C@H](CO[C@@H]3O[C@@H](CO)[C@H](O)[C@H]3OC(=O)c3cc(O)c(O)c(O)c3)[C@@H](O)[C@H](O)[C@H]2O)CC1`, for which half-maximal inhibition (IC50) was put at 10.5 µM.
The value for `C=CCc1cc(OC)c(O)c(O[C@@H]2O[C@H](COC(=O)/C=C/c3cc(OC)c(O)c(OC)c3)[C@@H](O)[C@H](O)[C@H]2O)c1` was 15 µM; that for `O=C(O)C[C@H]1CCC(=O)[C@@H]1C/C=C\CCO[C@@H]1O[C@H](COC(=O)c2cc(O)c(O)c(O)c2)[C@@H](O)[C@H](O)[C@H]1O` was 11.2 µM.
The value for `CC1=CC[C@H](C(C)(C)O[C@@H]2O[C@H](CO[C@@H]3O[C@@H](CO)[C@H](O)[C@H]3OC(=O)c3cc(O)c(O)c(O)c3)[C@@H](O)[C@H](O)[C@H]2O)CC1` was 11.6 µM; that for `C=CCc1ccc(O)c(OC)c1` [EUGENOL] was 27.5 µM.
The value for `O=C(O)c1cc(O)c(O)c(O)c1` [GALLIC ACID] was 8 µM; that for `COc1cc(/C=C/C(=O)O)cc(OC)c1O` [SINAPINATE] was 25.7 µM.
